For 19 molecules, inhibition of growth results are on record in patent US11155517B2, “4-substituted phenylamine derivatives and their use to protect crops by fighting undesired phytopathogenic micoorganisms” (PI INDUSTRIES LTD., priority 2016, dated 2021).

Holding throughout (assay type): cell-based
Test [1] has as its system Fusarium culmorum. As to the kind of experiment: Fusarium culmorum (foot rot of cereals) in vitro test, radial growth on Potato Dextrose Agar. To be noted: Fusarium culmorum, 168 h, read-out: % control compared to the untreated check (radial growth).
Test [2] has as its system Alternaria solani. As to the kind of experiment: Alternaria solani (early blight of tomato/potato) in vitro test, radial growth on Potato Dextrose Agar. To be noted: 168 h, 300 ppm, seven days, 25° C., read-out: % control compared to the untreated check (radial growth).
In test [3] the test system is Botrytis cinerea. As to the kind of experiment: Botrytis cinerea (gray mold) in vitro test, radial growth on Potato Dextrose Agar. As to conditions: 168 h, 300 ppm, seven days, 22° C., read-out: % (control) compared to the untreated check (radial growth).
In test [4] the test system is Colletotrichum capsici. Description: Colletotrichum capsici (anthracnose) in vitro test, radial growth on Potato Dextrose Agar. To be noted: Colletotrichum truncatum, 168 h; 300 ppm; seven days, 25° C.; read-out: % control compared to the untreated check (radial growth).
The subject of test [5] is Pyricularia oryzae. Description: microbe, parasite or virus in culture. As to conditions: 168 h, read-out: % control compared to the untreated check (radial growth).
The subject of test [6] is Rhizoctonia solani. As to the kind of experiment: Rhizoctonia solani (rice sheath blight/potato black scurf) in vitro test, radial growth on Potato Dextrose Agar. As to conditions: 168 h, 300 ppm, seven days, 25° C., read-out: % control compared to the untreated check (radial growth).
For test [7], the system named is Septoria lycopersici. Description: Septoria lycopersici (leaf spot of tomato) in vitro test, radial growth on Potato Dextrose Agar. To be noted: 168 h, seven days, 25° C., read-out: % control compared to the untreated check (radial growth).

Some results are limits rather than exact numbers.

`CCN(C)C=Nc1cc(C)c(Cc2cccc([N+](=O)[O-])c2)cc1C` [Compound 49, N′-(2,5-dimethyl-4-(3-nitrobenzyl)phenyl)-N-ethyl-N-methylformimidamide]: the inhibition of growth at 300 ppm in test [1] is 75%; in test [2] it was greater than 75%; in test [3], greater than 80%; in test [4] it was greater than 80%; in test [5] it was greater than 75%; in test [6], greater than 80%. The inhibition of growth at 300 ppm in test [7] was greater than 70%.

For `CCN(C)C=Nc1cc(C)c(Cc2cccc(OC(F)(F)F)c2)cc1C1CC1` [Compound 224, N′-(2-cyclopropyl-5-methyl-4-(3-(trifluoromethoxy)benzyl)phenyl)-N-ethyl-N-methylformimidamide], the inhibition of growth at 300 ppm in test [1] is 75%; in test [2] it was greater than 75%; in test [3], greater than 80%; in test [5], greater than 75%; in test [6], greater than 80%; in test [7], greater than 70%.

Consider `CCN(C)C=Nc1ccc(Cc2ccccc2C)c2ccccc12` [Compound 271, N-ethyl-N-methyl-N′-(4-(2-methylbenzyl)naphthalen-1-yl)formimidamide], for which the inhibition of growth at 300 ppm in test [1] is 75%; in test [2], greater than 75%; in test [3] it was greater than 80%; in test [5], greater than 75%; in test [6] it was greater than 80%; in test [7], greater than 70%.

With `CCN(C)C=Nc1cc(Cl)c(Cc2cccc(C)c2)cc1C` [Compound 260, N′-(5-chloro-2-methyl-4-(3-methylbenzyl)phenyl)-N-ethyl-N-methylformimidamide], the inhibition of growth at 300 ppm was 75% in test [1]; greater than 75% in test [2]; greater than 80% in test [3]; greater than 80% in test [4]; greater than 75% in test [5]; greater than 70% in test [7].

As for `CCN(C)C=Nc1cc(C)c(Cc2cc(F)cc(F)c2)cc1C` [Compound 132, N′-(4-(3,5-difluorobenzyl)-2,5-dimethylphenyl)-N-ethyl-N-methylformimidamide], the inhibition of growth at 300 ppm in test [1] is 75%; in test [2] it was greater than 75%; in test [3] it was greater than 80%; in test [4], greater than 80%; in test [5], greater than 75%; in test [6], greater than 80%.

With `CCN(C)C=Nc1cc(F)c(Cc2cccc(F)c2)cc1F` [Compound 269, N′-(2,5-difluoro-4-(3-fluorobenzyl)phenyl)-N-ethyl-N-methylformimidamide], the inhibition of growth at 300 ppm in test [1] is 75%; in test [2], greater than 75%; in test [3] it was greater than 80%; in test [4] it was greater than 80%; in test [5], greater than 75%; in test [6] it was greater than 80%.

With `CCN(C)C=Nc1cc(C)c(/C(=N\C)c2ccccc2C)cc1C` [Compound 215, N′-(2,5-dimethyl-4-((Z)-(methylimino)(o-tolyl)methyl)phenyl)-N-ethyl-N-methylformimidamide], the inhibition of growth at 300 ppm was 75% in test [1]; greater than 75% in test [2]; greater than 80% in test [4]; greater than 75% in test [5]; greater than 80% in test [6]; greater than 70% in test [7].

In the case of `CCN(C)C=Nc1cc(C)c(Cc2cccc(N(C)C)c2)cc1C` [Compound 111, N′-(4-(3-(dimethylamino)benzyl)-2,5-dimethylphenyl)-N-ethyl-N-methylformimidamide], the inhibition of growth at 300 ppm was 75% in test [1]; greater than 75% in test [2]; greater than 80% in test [4]; greater than 75% in test [5]; greater than 80% in test [6]; greater than 70% in test [7].

As to `CCN(C)C=Nc1cc(C)c(Cc2cc(C(F)(F)F)ccc2C)cc1C` [Compound 53, N′-(2,5-dimethyl-4-(2-methyl-5-(trifluoromethyl)benzyl)phenyl)-N-ethyl-N-methylformimidamide], the inhibition of growth at 300 ppm is 75% in test [1]; greater than 75% in test [2]; greater than 80% in test [3]; greater than 80% in test [4]; greater than 70% in test [7].

As to `CCN(C)C=Nc1cc(C)c(Cc2cccc(C#N)c2)cc1Cl` [Compound 72, N′-(2-chloro-4-(3-cyanobenzyl)-5-methylphenyl)-N-ethyl-N-methylformimidamide], the inhibition of growth at 300 ppm in test [1] is 75%; in test [2], greater than 75%; in test [4] it was greater than 80%; in test [5], greater than 75%; in test [6] it was greater than 80%; in test [7], greater than 70%.

As for `Cc1cc(N=CN2CCOCC2)c(C)cc1Cc1ccc(F)cc1` [Compound 56, N-(4-(4-fluorobenzyl)-2,5-dimethylphenyl)-1-morpholinomethanimine], the inhibition of growth at 300 ppm in test [1] was 75%; in test [2], greater than 75%; in test [3] it was greater than 80%; in test [5], greater than 75%; in test [6], greater than 80%; in test [7] it was greater than 70%.

For `CCN(C)C=Nc1cc(C)c(Cc2cccc(Cl)c2)cc1Cl` [Compound 78, N′-(2-chloro-4-(3-chlorobenzyl)-5-methylphenyl)-N-ethyl-N-methylformimidamide], the inhibition of growth at 300 ppm in test [1] is 75%; in test [2], greater than 75%; in test [3] it was greater than 80%; in test [4], greater than 80%; in test [5], greater than 75%; in test [6], greater than 80%.

Consider `CCN(C)C=Nc1cc(C#N)c(Cc2cccc(F)c2)cc1C` [Compound 250, N′-(5-cyano-4-(3-fluorobenzyl)-2-methylphenyl)-N-ethyl-N-methylformimidamide], for which the inhibition of growth at 300 ppm in test [1] was 75%; in test [2] it was greater than 75%; in test [3], greater than 80%; in test [5], greater than 75%; in test [6], greater than 80%; in test [7], greater than 70%.

Consider `Cc1cc(N=CN2CCOCC2)c(C)cc1Cc1ccccc1F` [Compound 55, N-(4-(2-fluorobenzyl)-2,5-dimethylphenyl)-1-morpholinomethanimine], for which the inhibition of growth at 300 ppm is 75% in test [1]; greater than 75% in test [2]; greater than 80% in test [3]; greater than 75% in test [5]; greater than 80% in test [6]; greater than 70% in test [7].

With `CCN(C)C=Nc1cc(C)c(Cc2c(Cl)cccc2Cl)cc1C` [Compound 153, N′-(4-(2,6-dichlorobenzyl)-2,5-dimethylphenyl)-N-ethyl-N-methylformimidamide], the inhibition of growth at 300 ppm in test [1] was 75%; in test [2], greater than 75%; in test [3], greater than 80%; in test [4], greater than 80%; in test [5], greater than 75%; in test [6], greater than 80%.

As for `CCN(C)C=Nc1cc(C)c(Cc2ccc(C(F)(F)F)c(F)c2)cc1Cl` [Compound 137, N′-(2-chloro-4-(3-fluoro-4-(trifluoromethyl)benzyl)-5-methylphenyl)-N-ethyl-N-methylformimidamide], the inhibition of growth at 300 ppm in test [1] is 75%; in test [2], greater than 75%; in test [3] it was greater than 80%; in test [4], greater than 80%; in test [5], greater than 75%; in test [6], greater than 80%.

With `CCN(C)C=Nc1cc(C)c(Cc2ccc(F)c(C)c2)cc1Cl` [Compound 119, N′-(2-chloro-4-(4-fluoro-3-methylbenzyl)-5-methylphenyl)-N-ethyl-N-methylformimidamide], the inhibition of growth at 300 ppm in test [1] is 75%; in test [2], greater than 75%; in test [3], greater than 80%; in test [4], greater than 80%; in test [5], greater than 75%; in test [6], greater than 80%.

Turning to `CCN(C)C=Nc1cc(C#N)c(Cc2ccc(C)cc2)cc1C` [Compound 252, N′-(5-cyano-2-methyl-4-(4-methylbenzyl)phenyl)-N-ethyl-N-methylformimidamide], the inhibition of growth at 300 ppm in test [1] was 75%; in test [2], greater than 75%; in test [3], greater than 80%; in test [5], greater than 75%; in test [6], greater than 80%; in test [7], greater than 70%.

For the molecule `CCN(C)C=Nc1cc(C)c(Cc2cc(F)cc(OC)c2)cc1C` [Compound 156, N-ethyl-N′-(4-(3-fluoro-5-methoxybenzyl)-2,5-dimethylphenyl)-N-methylformimidamide], the inhibition of growth at 300 ppm was 75% in test [1]; greater than 75% in test [2]; greater than 80% in test [3]; greater than 80% in test [4]; greater than 75% in test [5]; greater than 80% in test [6].
